Laboratory results from patent publication US10821115B2, “Compounds that inhibit Mcl-1 protein” (priority 2017, dated 2020).

Key:
OPM-2 Luc cells [1] = experiment: tumor PD model (OPM-2 Luc); assay type: in vivo; conditions: dosed orally to female athymic nude mice inoculated with OPM-2 Luc cells; compared with Reference Compound 1
Protocol: Both compounds were dosed orally to female athymic nude mice inoculated with OPM-2 Luc cells.

[2] = test system: human multiple myeloma cell line, OPM-2; experiment: Cell viability assay (OPM-2 10 FBS), CellTiter-Glo; assay type: cell-based; conditions: read-out: OPM-2 10% FBS IC50 IP; OPM-2 cells, 10% FBS, 16 h incubation
Procedure, shortened: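 Steps: plate cells at 3000/well in 10% FBS growth medium, add serially diluted compound, incubate 16 h at 37 °C with 5% CO2, add detection reagent and read luminescence after 25 min. A 4-parameter logistic model gives IC50.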

OPM-2 Luc cells [3] = experiment: OPM-2 xenograft efficacy model; assay type: in vivo; conditions: dosed orally to female athymic nude mice inoculated with OPM-2 Luc cells
Protocol: Example 1 was dosed orally to female athymic nude mice inoculated with OPM-2 Luc cells.

[4] = molecular target: recombinant human Mcl-1 (residues 171-327) / Bim interaction (Homo sapiens (Human), UniProt Q07820); experiment: biochemical; assay type: binding; conditions: 0.1 nM Mcl-1(171-327), 0.05 nM biotin-Bim (51-76); read-out: Mcl-1 HTRF IC50
Chain of recombinant human Mcl-1 (residues 171-327) / Bim interaction (Q07820 171-327): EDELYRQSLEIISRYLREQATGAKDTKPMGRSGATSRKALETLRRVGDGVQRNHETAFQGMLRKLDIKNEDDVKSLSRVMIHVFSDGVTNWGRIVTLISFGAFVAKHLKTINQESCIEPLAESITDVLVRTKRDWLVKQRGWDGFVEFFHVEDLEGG

With `CCO[C@]1(CN2CCN3CCOC[C@@H]3C2)/C=C/C[C@H](C)[C@@H](C)S(=O)(=O)NC(=O)c2ccc3c(c2)N(C[C@@H]2CC[C@H]21)C[C@@]1(CCCc2cc(Cl)ccc21)CO3` [Example 1, (1 S,3′R,6′R,7′R,8′E, 11′S,12′R)-6-chloro-7′-ethoxy-7′-((9aS)-hexahydropyrazino[2,1-c][1,4]oxazin-8(1H)-ylmethyl)-11′,12′-dimethyl-3,4-dihydro-2H,15′H-spiro[naphthalene-1,22′-[20]oxa[13]thia[1,14]diazatetracyclo[14.7.2.0-3,6˜.0˜19,24˜]pentacosa[8,16,18,24]tetraen]-15′-one 13′,13′-dioxide] as the compound, how does the “in vivo efficacy relative to Reference Compound 1 in a tumor PD model” value (OPM-2 Luc cells [1]) read?
Its value is “superior in vivo efficacy”.

What about the IC50 [2] of the same compound?
Its IC50 is 85 nM.

And the “in vivo efficacy in an OPM-2 xenograft efficacy model” value (OPM-2 Luc cells [3])?
Its value is “in vivo efficacy”.

And the IC50 [4]?
The IC50 was 0.086 nM.

With `CO[C@]1(CN2CCN(C3COC3)CC2)/C=C/C[C@H](C)[C@@H](C)S(=O)(=O)NC(=O)c2ccc3c(c2)N(C[C@@H]2CC[C@H]21)C[C@@]1(CCCc2cc(Cl)ccc21)CO3` [Example 3, (1 S,3′R,6′R,7′R,8′E,11′S,12′R)-6-chloro-7′-methoxy-11′,12′-dimethyl-7′-((4-(3-oxetanyl)-1-piperazinyl)methyl)-3,4-dihydro-2H, 15′H-spiro[naphthalene-1,22′-[20]oxa[13]thia[1,14]diazatetracyclo[14.7.2.0-3,6˜.0˜19,24˜]pentacosa[8,16,18,24]tetraen]-15′-one 13′,13′-dioxide] as the compound, how does the “in vivo efficacy relative to Reference Compound 1 in a tumor PD model” value (OPM-2 Luc cells [1]) read?
The value was “superior in vivo efficacy”.

And the IC50 [2]?
Its IC50 is 60 nM.

What about the IC50 [4] of the same compound?
Its IC50 is 0.094 nM.

For `CO[C@]1(CN2CCN3CCOC[C@@H]3C2)/C=C/C[C@H](C)[C@@H](C)S(=O)(=O)NC(=O)c2ccc3c(c2)N(C[C@@H]2CC[C@H]21)C[C@@]1(CCCc2cc(Cl)ccc21)CO3` [Example 4, (1S,3′R,6′R,7′R,8′E,11′S,12′R)-6-CHLORO-7′-((9AS)-HEXAHYDROPYRAZINO[2,1-C][1,4]OXAZIN-8(1H)-YLMETHYL)-7′-METHOXY-11′,12′-DIMETHYL-3,4-DIHYDRO-2H, 15′H-SPIRO[NAPHTHALENE-1,22′-[20]OXA[13]THIA[1,14]DIAZATETRACYCLO[14.7.2.0-3,6˜.0˜19,24˜]PENT ACOSA[8,16,18,24]TETRAEN]-15′-ONE 13′,13′-DIOXIDE], which “in vivo efficacy relative to Reference Compound 1 in a tumor PD model” value (OPM-2 Luc cells [1]) is on record?
Its value is “superior in vivo efficacy”.

What about the IC50 [2] of the same compound?
Its IC50 is 94 nM.

What about the “in vivo efficacy in an OPM-2 xenograft efficacy model” value (OPM-2 Luc cells [3]) of the same compound?
The value was “in vivo efficacy”.

And the IC50 [4]?
Its IC50 is 0.116 nM.

What does the source list for `CO[C@]1(CN2CCN3CCCC[C@@H]3C2)/C=C/C[C@H](C)[C@@H](C)S(=O)(=O)NC(=O)c2ccc3c(c2)N(C[C@@H]2CC[C@H]21)C[C@@]1(CCCc2cc(Cl)ccc21)CO3` [Example 10, (1 S,3′R,6′R,7′R,8′E, 11′S,12′R)-6-CHLORO-7′-METHOXY-11′,12′-DIMETHYL-7′-((9AR)-OCTAHYDRO-2H-PYRIDO[1,2-A]PYRAZIN-2-YLMETHYL)-3,4-DIHYDRO-2H, 15′H-SPIRO [NAPHTHALENE-1,22′-[20]OXA[13]THIA[1,14]DIAZATETRACYCLO [14.7.2.0-3,6˜.0˜19,24˜]PENTACOSA[8,16,18,24]TETRAEN]-15′-ONE 13′,13′-DIOXIDE]?
IC50 [2]: 75 nM; in vivo efficacy in an OPM-2 xenograft efficacy model (OPM-2 Luc cells [3]): in vivo efficacy

“(1 S,3′R,6′R,7′R,8′E,11′S,12′R)-6-chloro-7′-((9aS)-hexahydropyrazino[2,1-c][1,4]oxazin-8(1H)-ylmethyl)-7′-methoxy-12′-(2-methoxyethyl)-11′-methyl-3,4-dihydro-2H, 15′H-spiro[naphthalene-1,22′-[20]oxa[13]thia[1,14]diazatetracyclo[14.7.2.0-3,6˜.0˜19,24˜]pentacosa[8,16,18,24]tetraen]-15′-one 13′,13′-dioxide [Example 11]” was tested. Which IC50 [2] did it give?
The IC50 was 51 nM.

And the “in vivo efficacy in an OPM-2 xenograft efficacy model” value (OPM-2 Luc cells [3])?
Its value is “in vivo efficacy”.

Which “in vivo efficacy relative to Reference Compound 1 in a tumor PD model” value (OPM-2 Luc cells [1]) does the source give for “(1 S,3′R,6′R,7′S,8′E,11′S, 12′R)-6-chloro-7′-((9aS)-hexahydropyrazino[2,1-c][1,4]oxazin-8(1H)-ylmethyl)-7′-methoxy-11′,12′-dimethyl-3,4-dihydro-2H, 15′H-spiro[naphthalene-1,22′-[20]oxa[13]thia[1,14,25]triazatetracyclo[14.7.2.0-3,6˜.0˜19,24˜]pentacosa[8,16,18,24]tetraen]-15′-one 13′,13′-dioxide [Example 18]” here?
Its value is “superior in vivo efficacy”.

And the IC50 [2]?
The IC50 was 22 nM.

What about the “in vivo efficacy in an OPM-2 xenograft efficacy model” value (OPM-2 Luc cells [3]) of the same compound?
Its value is “in vivo efficacy”.

What about the IC50 [4] of the same compound?
Its IC50 is 0.06 nM.

Which results are given for “(1S,3′R,6′R,7′S,8′E,11′S,12′R)-6-chloro-7′-((9aS)-hexahydropyrazino[2,1-c][1,4]oxazin-8(1H)-ylmethyl)-7′-methoxy-11′-methyl-3,4-dihydro-2H,16′H-spiro[naphthalene-1,23′-[21]oxa[27]thia[1,15]diazapentacyclo[15.7.2.1-12,15˜.0˜3,6˜.0˜20,25˜]heptacos a[8,17,19,25]tetraen]-16′-one 27′,27′-dioxide [Example 364]”?
IC50 [2]: > 33300 nM; IC50 [4]: 192 nM

“(1S,3′R,6′R,7′S,8′E, 11′S,12′R)-6-chloro-12′-(2-chloroethyl)-7′-((9aS)-hexahydropyrazino[2,1-c][1,4]oxazin-8(1H)-ylmethyl)-7′-methoxy-11′-methyl-3,4-dihydro-2H,15′H-spiro[naphthalene-1,22′-[20]oxa[13]thia[1,14]diazatetracyclo[14.7.2.0-3,6˜.0˜19,24˜]pentacosa[8,16,18,24]tetraen]-15′-one 13′,13′-dioxide [Example 366]” was tested. Which IC50 [2] did it give?
Its IC50 is 133 nM.

What about the IC50 [4] of the same compound?
Its IC50 is 0.248 nM.
